Data: US11697667B2, “Salts and polymorphs of cethromycin for the treatment of disease” (AliquantumRx, Inc., priority 2019, dated 2023)

Legend:
[1] = test system: malaria (infective sporozoites); assay: Liver stage activity in murine malaria model; assay type: in vivo, mice
Description: Quantifiable endpoints may include measured activity against malaria.

malaria = assay: Mouse malaria blood stage high parasitemia parasite killing model; assay type: in vivo, mice
Description: Additionally or alternatively, mouse malaria blood stage activity may be tested in a high parasitemia parasite killing model (n=5 mice/dose) to assess rate of killing and minimal dose and duration for cure as disclosed above and/or according to methods known in the art. Quantifiable endpoints may include measured activity against malaria.

[2] = Storage stability at 40° C./75% RH and 25° C./97% RH (PXRD, HPLC, NMR); assay type: physicochemical; settings: 7 days
Protocol: Studies were performed on various cethromycin forms in order to determine stability for storage.

[3] = Variable-temperature PXRD / thermal behaviour of acetate pattern 1; assay type: physicochemical; settings: after VT PXRD
Protocol: For variable temperature (VT-XRPD) experiments samples were mounted on an Anton Paar DHS 900 hot stage at ambient conditions. The sample was then heated to the appropriate temperature at 20° C./min and subsequently held isothermally for 1 minute before data collection. Samples were prepared and analysed on a silicon wafer mounted to the hot stage using a heat-conducting paste.
In order to investigate this further a VT PXRD experiment on this material was carried out. On heating, the original white powder converts first to a translucent solid by 130° C., then to a translucent white solid by 170° C. This conversion is accompanied by loss of the original diffraction pattern is lost and appearance of a new diffraction pattern. […] The material is stable at RT.

| SMILES | Liver stage activity relative to the activity of cethromycin chloride [1] | Blood stage activity relative to the activity of cethromycin chloride (malaria) | HPLC Purity after storage at 40° C./75% RH for 7 days [2] [%] | PXRD after storage at 40° C./75% RH for 7 days ([2]; made from acetate pattern 1 by heating to 150° C.) | Stability of the form at RT [3] |
| --- | --- | --- | --- | --- | --- |
| CCC1OC(=O)C(C)C(=O)C(C)C(OC2OC(C)CC(NC)C2O)C(C)(OCC=Cc2cnc3ccccc3c2)CC(C)C(=O)C(C)C2NC(=O)OC12C (centres unmarked) [M1 metabolite, N-desmethyl cethromycin] | less than 30% | less than 30% |  |  |  |
| CC[C@H]1OC(=O)[C@H](C)C(=O)[C@H](C)[C@@H](O[C@@H]2O[C@H](C)C[C@H](N(C)C)[C@H]2O)[C@](C)(OCC=Cc2cnc3ccccc3c2)C[C@@H](C)C(=O)[C@H](C)[C@H]2NC(=O)O[C@@]21C [freebase pattern 1] |  |  | 96.6 | freebase pattern 1 | stable at RT |
